Experimental data: PubChem BioAssay (NCI)
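Briefly, cells in 96-well plates were exposed to five compound concentrations for 48 h, and endpoints were estimated by linear interpolation. Definition used: TGI = concentration required for complete inhibition of growth.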

What was measured:
Test in all cases: inhibition of tumour cell growth, NCI panel, 48 h
[1] = tested on: SN12C renal
[2] = tested on: NCI/ADR-RES ovarian
[3] = tested on: ACHN renal
[4] = tested on: OVCAR-8 ovarian
[5] = tested on: U251 CNS
[6] = tested on: MDA-MB-435
[7] = tested on: K-562 leukemia
[8] = tested on: HCT-15 colon
[9] = tested on: KM12 colon
[10] = tested on: NCI-H460 lung
[11] = tested on: HL-60(TB) leukemia
[12] = tested on: SNB-19 CNS
[13] = tested on: UACC-257 melanoma
[14] = tested on: CAKI-1 renal
[15] = tested on: MDA-N
[16] = tested on: SF-268 CNS
[17] = tested on: NCI-H226 lung
[18] = tested on: SK-MEL-28 melanoma
[19] = tested on: SNB-75 CNS
[20] = tested on: MDA-MB-231 breast
[21] = tested on: SR leukemia
[22] = tested on: SW-620 colon
[23] = tested on: A498 renal
[24] = tested on: NCI-H23 lung
[25] = tested on: RPMI-8226 leukemia
[26] = tested on: CCRF-CEM leukemia
[27] = tested on: BT-549 breast
[28] = tested on: OVCAR-4 ovarian
[29] = tested on: MOLT-4 leukemia
[30] = tested on: HOP-92 NSCLC
[31] = tested on: UO-31 renal
[32] = tested on: UACC-62 melanoma
[33] = tested on: TK-10 renal
[34] = tested on: HCC-2998 colon
[35] = tested on: SF-539 CNS
[36] = tested on: NCI-H522 lung
[37] = tested on: DU-145 prostate
[38] = tested on: LOX IMVI melanoma
[39] = tested on: SK-MEL-5 melanoma
[40] = tested on: MALME-3M melanoma
[41] = tested on: MCF7 breast
[42] = tested on: OVCAR-3 ovarian
[43] = tested on: 786-0 renal
[44] = tested on: RXF 393 renal
[45] = tested on: OVCAR-5 ovarian
[46] = tested on: IGROV1 ovarian
[47] = tested on: HS 578T breast
[48] = tested on: SF-295 CNS
[49] = tested on: T-47D breast
[50] = tested on: SK-OV-3 ovarian
[51] = tested on: PC-3 prostate
[52] = tested on: SK-MEL-2 melanoma
[53] = tested on: HOP-62 NSCLC
[54] = tested on: COLO 205 colon
[55] = tested on: A549 NSCLC
[56] = tested on: HT29 colon
[57] = tested on: M14 melanoma
[58] = tested on: HCT-116 colon

CC1(C)/C(=N\O)C2(C#N)CCC1C2 (centres undefined)
TGI [1]: > 100 µM | TGI [2]: > 100 µM | TGI [3]: > 100 µM | TGI [4]: > 100 µM | TGI [5]: > 100 µM | TGI [6]: > 100 µM | TGI [7]: > 100 µM | TGI [8]: > 100 µM | TGI [9]: > 100 µM | TGI [10]: > 100 µM | TGI [11]: > 100 µM | TGI [12]: > 100 µM | TGI [13]: > 100 µM | TGI [14]: > 100 µM | TGI [15]: > 100 µM | TGI [16]: > 100 µM | TGI [17]: > 100 µM | TGI [18]: > 100 µM | TGI [19]: > 100 µM | TGI [20]: > 100 µM | TGI [21]: > 100 µM | TGI [22]: > 100 µM | TGI [23]: > 100 µM | TGI [24]: > 100 µM | TGI [25]: > 100 µM | TGI [26]: > 100 µM | TGI [27]: > 100 µM | TGI [28]: > 100 µM | TGI [29]: > 100 µM | TGI [30]: > 100 µM | TGI [31]: > 100 µM | TGI [32]: > 100 µM | TGI [33]: > 100 µM | TGI [34]: > 100 µM

Cc1ccc(S(=O)(=O)n2c3c(c4ccccc42)CCN2C(=O)C(S(=O)(=O)c4ccccc4)=CCC32)cc1 (centres undefined)
TGI [1]: 0.434 µM | TGI [35]: 0.391 µM | TGI [36]: 0.567 µM | TGI [37]: 0.375 µM | TGI [3]: 0.393 µM | TGI [4]: 0.328 µM | TGI [38]: 0.452 µM | TGI [5]: 0.404 µM | TGI [6]: 0.445 µM | TGI [7]: 0.673 µM | TGI [8]: 0.421 µM | TGI [9]: 0.645 µM | TGI [10]: 1.51 µM | TGI [39]: 0.337 µM | TGI [11]: 0.468 µM | TGI [12]: 1.91 µM | TGI [13]: 0.319 µM | TGI [14]: 0.872 µM | TGI [40]: 0.463 µM | TGI [41]: 0.656 µM | TGI [15]: 0.378 µM | TGI [42]: 0.332 µM | TGI [18]: 0.353 µM | TGI [19]: 1.41 µM | TGI [20]: 0.409 µM | TGI [21]: 0.635 µM | TGI [43]: 0.346 µM | TGI [22]: 0.715 µM | TGI [44]: 0.273 µM | TGI [23]: 0.582 µM | TGI [24]: 0.335 µM | TGI [25]: 0.749 µM | TGI [45]: 0.581 µM | TGI [28]: 0.436 µM | TGI [46]: 0.36 µM | TGI [47]: 9.15 µM | TGI [48]: 3.49 µM | TGI [49]: 0.375 µM | TGI [50]: 2.61 µM | TGI [30]: 0.315 µM | TGI [31]: 0.384 µM | TGI [32]: 0.622 µM | TGI [51]: 0.562 µM | TGI [52]: 0.475 µM | TGI [53]: 0.562 µM | TGI [54]: 0.458 µM | TGI [33]: 0.282 µM | TGI [55]: 2.77 µM | TGI [56]: 0.48 µM | TGI [34]: 0.44 µM

O=c1cc(-c2ccc(O)cc2)n(C2CC2)c2ccccc12
TGI [1]: 32.3 µM | TGI [35]: 18.9 µM | TGI [36]: 9.69 µM | TGI [37]: 21.5 µM | TGI [2]: 38.8 µM | TGI [3]: 5.99 µM | TGI [4]: 47.1 µM | TGI [38]: 16.7 µM | TGI [5]: 21.6 µM | TGI [6]: 17.5 µM | TGI [7]: > 100 µM | TGI [8]: 16.8 µM | TGI [9]: 16.2 µM | TGI [10]: 17.3 µM | TGI [39]: 18.5 µM | TGI [11]: 81.6 µM | TGI [12]: 50.1 µM | TGI [13]: 25.8 µM | TGI [14]: 20.8 µM | TGI [41]: 35.5 µM | TGI [15]: 26.2 µM | TGI [42]: 16.8 µM | TGI [16]: 24.5 µM | TGI [17]: 16.4 µM | TGI [20]: 22.2 µM | TGI [21]: > 100 µM | TGI [43]: 17.1 µM | TGI [22]: 26.7 µM | TGI [44]: 8.42 µM | TGI [57]: 20.7 µM | TGI [24]: 26.6 µM | TGI [25]: 9.05 µM | TGI [45]: 19.4 µM | TGI [26]: 72.2 µM | TGI [46]: > 100 µM | TGI [47]: 24.8 µM | TGI [29]: > 100 µM | TGI [48]: 11.9 µM | TGI [49]: 20.7 µM | TGI [50]: 42.6 µM | TGI [30]: 19.8 µM | TGI [31]: 21.1 µM | TGI [32]: 14.8 µM | TGI [51]: 92.3 µM | TGI [58]: 13.1 µM | TGI [52]: 8.2 µM | TGI [53]: 21.3 µM | TGI [54]: 15.1 µM | TGI [55]: 18.5 µM | TGI [56]: 9.25 µM
